US20240279304A1, “DSG2 COMPOSITIONS AND METHODS” (Arvada Therapeutics, Inc., priority 2021, published 2024)
Entries after “also recorded” stand apart in the source; their conditions may differ.

Legend:
[1] = Dynamic light scattering (DLS) of DSG2 fusion polypeptides; type: physicochemical; conditions: average polymer distribution index
From the text: 6 candidates were compared to the reference sample.

anti-DSG2 antibody = anti-DSG2 antibody meso scale discovery (MSD) assay, blocking of anti-DSG2 antibody; type: binding; conditions: for % inhibition: fraction C (table title)
Description: (§1) The DSG2 fusion polypeptides were tested for the ability to block anti-DSG2 antibody by an anti-DSG2 antibody meso scale discovery (MSD) assay. […] The DSG2 fusion polypeptides were subjected to size exclusion chromatography and different elution fractions were examined. […] As shown in Table 7 and FIG. 1B, FIG. 1C, and FIG. 1D, enriching for fraction C improved the ability of the DSG2 fusion polypeptides to block ARVC patient serum.

[2] = system: ARVC serum (anti-DSG2 antibodies in serum obtained from ARVC patients); experiment: anti-DSG2 antibody MSD assay, blocking of ARVC patient serum; type: binding, human; set-up: % inhibition: concentration or dose not given beside the values; conditions: for % inhibition: fraction C (table title)
Description: as §1
ARVC diagnosis is based on complex tool known as Task Force Criteria, which can lead to varying levels of conviction about ARVC diagnosis. The utility of DSG2 antibodies as an indicator of ARVC disease state and severity was explored. Approximately 50 cc serum was collected from diagnosed ARVC patients. A total of 10 ARVC patients and 5 healthy controls were used for the analysis. ARVC serum samples were separated into more robust diagnosis and less robust diagnosis, based on available data in the patient medical records and anti-DSG2 antibody levels were compared using an anti-DSG2 antibody meso scale discovery (MSD)-based assay.

[3] = system: human iPSC-derived cardiomyocytes; experiment: CiPA multielectrode array (MEA) assay, cell index; type: cell-based
Description: To determine the effect of anti-DSG2 antibodies in cardiomyocytes, the cardiac in vitro proarrhythmia (CiPA) assay was performed (Sager et al. Am Heart J 2014; 167:292-300; the contents of which are herein incorporated by reference in its entirety). CiPA is envisioned to consist of four components: (1) an evaluation of the effects of test agents on cardiac ion channel assays; (2) in silico modeling of the cardiac action potential based on the ion channel results to integrate the data with cardiac function; (3) experimental measurement of test agent effects in human ventricular myocytes to confirm the modeling result; and (4) scoring the results. The multielectrode array (MEA) assay is a component of CiPA which uses human induced pluripotent stem cell (iPSC)-derived cardiomyocytes to evaluate two-dimensional excitation propagation by recording spontaneous ECG-like field potentials. The sodium spike quantified below is a measurement of the specific sodium channel current in the cardiomyocyte and is also described in Blinova K, et al. Cell Rep. 2018 Sep. 25; 24(13):3582-3592 (the contents of which are herein incorporated by reference in its entirety). CiPA is considered a clinically validated cardiomyocyte-based assay by the FDA and the EMA. […] The parameters evaluated include measuring a change in the spike in the component of electrical signal propagation (e.g. sodium spike) and cell index—a function of cell impedance and cell number. Changes in sodium spike may be indicative of arrhythmia and a change in cell index (CI) may be indicative of changes to cell connectivity.
Cell index is inversely related the cell layer's conductivity to electrical current. Increased conductivity across the cell layer, may indicate that there are more gaps in the cell layer, implying that the cells are less well-adhered to each other. Thus, increased conductivity across the cell layer, may result in lower cell index. […] The concentration of anti-DSG2 antibodies varied from 0.00005 μg/mL to 5 μg/mL. […] The concentration of lidocaine varied from 3 μM to 100 μM. […] The concentration of anti-DSG2 antibodies varied from 0.00005 μg/mL to 5 μg/mL.

[4] = system: anti-DSG2 antibodies in sera of ARVC patients; experiment: Electrochemical immunoassay, blocking of ARVC patient sera binding to DSG2 extracellular domain; set-up: species or system human; conditions: fusion polypeptides 5 μg/mL; patient sera 10% (v/v); FIG. 5
Description: DSG2 fusion polypeptides were investigated for the ability to block the binding of anti-DSG2 antibodies in sera of ARVC patients to the DSG2 extracellular domain in an electrochemical immunoassay. The fusion polypeptides were added to a final concentration of 5 μg/mL and patient sera were used at a final concentration of 10% (v/v). The results are shown in the series of bar charts in FIG. 5, where the numbers 961, 965, 978, 986 and 964 indicate ARVC patient serum samples.
In FIG. 5, the first data series from the left is for DSG2FP #1 (described above as amino acids 49-608 of SEQ ID NO:30; Linker (IEGRMD (SEQ ID NO: 28)); amino acids 100-330 of IgG1 (SEQ ID NO: 4). The second data series from the left is for DSG2(50-602)-6×His, which is a fusion polypeptide of DSG2 amino acids 50-602 of SEQ ID NO: 1 (complete extracellular domain) to a hexahistidine peptide tag. The third data series from the left is for a combination of fusion polypeptides which includes EC1(50-155)-6×His, a fusion of DSG2 amino acids 50-155 of SEQ ID NO: 1 (EC1) to a hexahistidine peptide tag and EC2(151-268)-6×His, a fusion of DSG2 amino acids 151-268 of SEQ ID NO: 1 (EC2) to a hexahistidine peptide tag. […] It is likely that other affinity tags may be determined to be useful in alternative embodiments of DSG2 polypeptides, with examples including, but not limited to CBP, MBP, streptavidin and GST, for example. […]

Substance: DSG2FP#1: R&D Systems DSG2 extracellular domain (49-608 of SEQ ID NO: 30); linker IEGRMD; amino acids 100-330 of IgG1
- PDI [1]: 0.33
- ability to bind to and block anti-DSG2 antibody (in words) (anti-DSG2 antibody): able to bind and block anti-DSG2 antibody
- % inhibition (anti-DSG2 antibody; sample: Anti-DSG2 antibody (200 ng/mL) control): 63.8%
- % inhibition (anti-DSG2 antibody; sample: Anti-DSG2 antibody (1000 ng/mL) control): 88.4%
- % inhibition (anti-DSG2 antibody; sample: no antibody control): 4.8%
- ability to bind and block ARVC serum (in words) [2]: able to bind and block anti-DSG2 antibody as well as serum obtained from ARVC patients
- blocking of assay signal from ARVC patient serum samples with strong clinical data (in words) ([2]; Example 3, competing DSG2 polypeptide added): could also be blocked
- % inhibition ([2]; sample: ARVC serum 1): 96.7%
- % inhibition ([2]; sample: ARVC serum 2): 82.9%
- % inhibition ([2]; sample: ARVC serum 3): 95.8%
- % inhibition ([2]; sample: ARVC serum 4): 95.7%
- % inhibition ([2]; sample: ARVC serum 5): 93.1%
- reversal of effects of anti-DSG2 antibodies on cell index (in words) [3]: reversed; also recorded: completely blocks the effect of the anti-DSG2 antibodies
- Cell Index (+/- SEM) ([3]; added with Anti-DSG2 antibody (0.00005 μg/mL)): 22.4 (1.9)
- Cell Index (+/- SEM) ([3]; added with Anti-DSG2 antibody (0.0005 μg/mL)): 22.4 (1.1)
- Cell Index (+/- SEM) ([3]; added with Anti-DSG2 antibody (0.005 μg/mL)): 20.4 (0.5)
- Cell Index (+/- SEM) ([3]; added with Anti-DSG2 antibody (0.05 μg/mL)): 21.6 (0.4)
- Cell Index (+/- SEM) ([3]; added with Anti-DSG2 antibody (0.5 μg/mL)): 22.0 (0.8)
- Cell Index (+/- SEM) ([3]; added with Anti-DSG2 antibody (5 μg/mL)): 24.1 (0.5)
- Cell Index (+/- SEM) ([3]; added with Anti-VCAM1 antibody (0.00005 μg/mL)): 23.2 (0.7)
- Cell Index (+/- SEM) ([3]; added with Anti-VCAM1 antibody (0.0005 μg/mL)): 22.0 (0.5)
- Cell Index (+/- SEM) ([3]; added with Anti-VCAM1 antibody (0.005 μg/mL)): 21.0 (0.5)
- Cell Index (+/- SEM) ([3]; added with Anti-VCAM1 antibody (0.05 μg/mL)): 21.0 (0.4)
- Cell Index (+/- SEM) ([3]; added with Anti-VCAM1 antibody (0.5 μg/mL)): 21.8 (0.5)
- Cell Index (+/- SEM) ([3]; added with Anti-VCAM1 antibody (5 μg/mL)): 24.6 (0.5)
- Cell Index (+/- SEM) ([3]; added with Rabbit IgG (0.00005 μg/mL)): 22.5 (1.7)
- Cell Index (+/- SEM) ([3]; added with Rabbit IgG (0.0005 μg/mL)): 22.4 (1.3)
- Cell Index (+/- SEM) ([3]; added with Rabbit IgG (0.005 μg/mL)): 21.0 (0.8)
- Cell Index (+/- SEM) ([3]; added with Rabbit IgG (0.05 μg/mL)): 21.3 (0.4)
- Cell Index (+/- SEM) ([3]; added with Rabbit IgG (0.5 μg/mL)): 21.1 (0.4)
- Cell Index (+/- SEM) ([3]; added with Rabbit IgG (5 μg/mL)): 24.2 (0.5)
- blocking activity (inhibition; 100% = complete blocking) [4]: best blocking activity
